# “Also recorded” adds a separate entry of the source. Where a SMILES comes first, the peptide text is derived from it. Bridges are numbered along the chain shown (N, C = ends). Where no end group is shown, it is not given here.
# B1: kurtoxin (protein, UniProt P58910 1-63, looked up)
# Kurtoxin: KIDGYPVDYWNCKRICWYNNKYCNDLCKGLKADSGYCWGWTLSCYCQGLPDNARIKRSGRCRA
# How the values were obtained:
# [1] = molecular target: T1, recombinant hCaV3.3 channels (Homo sapiens, UniProt Q9P0X4); assay: QPatch whole-cell patch-clamp, CaV3.3; type: cell-based
# T1 construct: expressed in transfected cells
# T1 sequence (Q9P0X4 whole entry): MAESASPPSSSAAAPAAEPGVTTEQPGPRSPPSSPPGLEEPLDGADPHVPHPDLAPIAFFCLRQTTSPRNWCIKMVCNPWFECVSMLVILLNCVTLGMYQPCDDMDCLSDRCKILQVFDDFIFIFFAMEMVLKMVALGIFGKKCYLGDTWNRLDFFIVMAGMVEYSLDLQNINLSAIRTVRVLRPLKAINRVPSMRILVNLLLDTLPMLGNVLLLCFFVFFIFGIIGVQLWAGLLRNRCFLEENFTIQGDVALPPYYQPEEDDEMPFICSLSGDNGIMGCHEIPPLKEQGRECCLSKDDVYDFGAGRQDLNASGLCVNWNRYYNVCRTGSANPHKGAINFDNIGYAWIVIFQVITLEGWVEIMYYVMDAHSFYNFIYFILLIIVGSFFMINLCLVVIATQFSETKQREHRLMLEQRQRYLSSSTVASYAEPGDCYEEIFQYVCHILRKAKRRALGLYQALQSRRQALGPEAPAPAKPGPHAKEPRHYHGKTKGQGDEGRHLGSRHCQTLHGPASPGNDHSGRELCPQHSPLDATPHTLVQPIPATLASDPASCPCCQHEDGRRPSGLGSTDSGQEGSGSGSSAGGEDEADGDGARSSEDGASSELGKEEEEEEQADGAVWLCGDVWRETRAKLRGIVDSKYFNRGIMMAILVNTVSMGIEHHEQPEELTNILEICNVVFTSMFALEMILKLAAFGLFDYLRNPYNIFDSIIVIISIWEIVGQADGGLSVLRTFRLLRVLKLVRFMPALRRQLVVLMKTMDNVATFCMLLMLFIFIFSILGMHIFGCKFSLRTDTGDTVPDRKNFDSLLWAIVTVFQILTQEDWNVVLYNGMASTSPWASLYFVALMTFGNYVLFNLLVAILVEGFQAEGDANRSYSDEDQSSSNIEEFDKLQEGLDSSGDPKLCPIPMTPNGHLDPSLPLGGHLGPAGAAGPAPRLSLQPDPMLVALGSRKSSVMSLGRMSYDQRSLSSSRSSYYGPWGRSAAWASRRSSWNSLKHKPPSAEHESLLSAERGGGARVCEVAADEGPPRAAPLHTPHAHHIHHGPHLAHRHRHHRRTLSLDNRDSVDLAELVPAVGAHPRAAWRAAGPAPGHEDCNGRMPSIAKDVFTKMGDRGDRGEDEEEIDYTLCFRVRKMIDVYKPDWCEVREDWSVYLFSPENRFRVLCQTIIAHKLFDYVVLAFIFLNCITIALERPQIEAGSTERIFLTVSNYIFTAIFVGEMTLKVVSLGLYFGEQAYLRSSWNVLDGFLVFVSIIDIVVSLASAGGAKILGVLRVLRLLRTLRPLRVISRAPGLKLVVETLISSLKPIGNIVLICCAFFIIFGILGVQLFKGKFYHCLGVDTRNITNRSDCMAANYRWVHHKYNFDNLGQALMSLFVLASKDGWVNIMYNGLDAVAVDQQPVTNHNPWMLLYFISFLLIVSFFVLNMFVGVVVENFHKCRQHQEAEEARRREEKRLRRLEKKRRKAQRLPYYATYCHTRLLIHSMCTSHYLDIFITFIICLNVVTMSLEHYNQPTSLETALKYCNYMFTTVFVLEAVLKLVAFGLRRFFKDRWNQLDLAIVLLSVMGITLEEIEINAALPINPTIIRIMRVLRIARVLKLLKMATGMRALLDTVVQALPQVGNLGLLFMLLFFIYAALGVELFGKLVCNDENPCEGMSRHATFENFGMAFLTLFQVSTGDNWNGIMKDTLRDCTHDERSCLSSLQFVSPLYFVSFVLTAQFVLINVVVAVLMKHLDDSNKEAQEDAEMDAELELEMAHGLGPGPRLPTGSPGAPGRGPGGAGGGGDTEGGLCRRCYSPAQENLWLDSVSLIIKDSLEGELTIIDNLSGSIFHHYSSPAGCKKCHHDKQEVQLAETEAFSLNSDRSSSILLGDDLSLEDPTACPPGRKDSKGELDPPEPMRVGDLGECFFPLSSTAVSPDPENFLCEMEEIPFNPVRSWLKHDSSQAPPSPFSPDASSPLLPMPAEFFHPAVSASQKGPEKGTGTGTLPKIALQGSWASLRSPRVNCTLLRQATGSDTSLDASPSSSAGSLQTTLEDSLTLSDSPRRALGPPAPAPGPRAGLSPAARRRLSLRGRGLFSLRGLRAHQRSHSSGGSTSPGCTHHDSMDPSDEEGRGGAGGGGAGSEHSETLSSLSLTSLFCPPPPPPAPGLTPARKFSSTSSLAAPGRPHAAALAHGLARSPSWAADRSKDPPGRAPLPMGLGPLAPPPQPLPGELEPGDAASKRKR
# Method: (§1) The human embryonic kidney 293 (HEK 293) cell lines (from Emmanuel Bourinet, Montpellier, France) stably expressing CaV3.2 or CaV3.3 [41] were cultured under 5% carbon dioxide at 37 °C in Dulbecco’s Modified Eagle Medium (DMEM) Glutamax (Gibco, Life Technologies, Carlsbad, CA, USA) supplemented with 10% (v/v) fetal bovine serum (FBS), 100 U/mL penicillin, 100 μg/mL streptomycin (Gibco, Life Technologies), and 750 μg/mL geneticin (G418) (Gibco, Life Technologies). The Chinese Hamster Ovary (CHO) cell lines (Emmanuel Bourinet, Montpellier, France) expressing CaV3.1 [42] were cultured under 5% carbon dioxide at 37 °C in Alpha Minimum Essential Media (MEM) Glutamax (Gibco, Life Technologies), supplemented with 10% (v/v) fetal bovine serum (FBS) and 300 μg/mL geneticin (G418) (Gibco, Life Technologies). The human neuroblastoma SH-SY5Y cells (Victor Diaz, Goettingen, Germany) were cultured under 5% carbon dioxide at 37 °C in RPMI 1640 antibiotic-free medium (Invitrogen, Carlsbad, CA, USA), supplemented with 15% FBS and 2 mM GlutaMAX™ (Invitrogen). D-PBS (Gibco, Life Technologies) was used to wash the cells, and 0.25% Trypsin-EDTA (Gibco, Life Technologies) was used to detach the cells from the flask surface. They were split in a ratio of 1:5 (ideally 1000 cells/cm^2) when they reached 70–80% confluence (every 2–3 days).
# (§2) Whole-cell patch-clamp experiments were performed on an automated electrophysiology platform QPatch 16 X (Sophion Bioscience A/S, Ballerup, Denmark) in a single-hole configuration using 16-channel planar patch chip QPlates (Sophion Bioscience A/S). The extracellular recording solution contained, in mM: TEACl 157, MgCl2 0.5, CaCl2 5, and HEPES 10; pH 7.4 adjusted with TEAOH; and osmolarity 320 mOsm. The intracellular pipette solution contained, in mM: CsF 140, EGTA 1, HEPES 10, and NaCl 10; pH 7.2 adjusted with CsOH; and osmolarity 325 mOsm. […]
# (§3) The data were plotted and analyzed using GraphPad Prism v8.0 (GraphPad Software Inc., San Diego, CA, USA). […]
# [2] = molecular target: T2, recombinant hCaV3.2 channels (Homo sapiens, UniProt O95180); assay: QPatch whole-cell patch-clamp, CaV3.2; type: cell-based
# T2 construct: expressed in transfected cells
# T2 sequence (O95180 whole entry): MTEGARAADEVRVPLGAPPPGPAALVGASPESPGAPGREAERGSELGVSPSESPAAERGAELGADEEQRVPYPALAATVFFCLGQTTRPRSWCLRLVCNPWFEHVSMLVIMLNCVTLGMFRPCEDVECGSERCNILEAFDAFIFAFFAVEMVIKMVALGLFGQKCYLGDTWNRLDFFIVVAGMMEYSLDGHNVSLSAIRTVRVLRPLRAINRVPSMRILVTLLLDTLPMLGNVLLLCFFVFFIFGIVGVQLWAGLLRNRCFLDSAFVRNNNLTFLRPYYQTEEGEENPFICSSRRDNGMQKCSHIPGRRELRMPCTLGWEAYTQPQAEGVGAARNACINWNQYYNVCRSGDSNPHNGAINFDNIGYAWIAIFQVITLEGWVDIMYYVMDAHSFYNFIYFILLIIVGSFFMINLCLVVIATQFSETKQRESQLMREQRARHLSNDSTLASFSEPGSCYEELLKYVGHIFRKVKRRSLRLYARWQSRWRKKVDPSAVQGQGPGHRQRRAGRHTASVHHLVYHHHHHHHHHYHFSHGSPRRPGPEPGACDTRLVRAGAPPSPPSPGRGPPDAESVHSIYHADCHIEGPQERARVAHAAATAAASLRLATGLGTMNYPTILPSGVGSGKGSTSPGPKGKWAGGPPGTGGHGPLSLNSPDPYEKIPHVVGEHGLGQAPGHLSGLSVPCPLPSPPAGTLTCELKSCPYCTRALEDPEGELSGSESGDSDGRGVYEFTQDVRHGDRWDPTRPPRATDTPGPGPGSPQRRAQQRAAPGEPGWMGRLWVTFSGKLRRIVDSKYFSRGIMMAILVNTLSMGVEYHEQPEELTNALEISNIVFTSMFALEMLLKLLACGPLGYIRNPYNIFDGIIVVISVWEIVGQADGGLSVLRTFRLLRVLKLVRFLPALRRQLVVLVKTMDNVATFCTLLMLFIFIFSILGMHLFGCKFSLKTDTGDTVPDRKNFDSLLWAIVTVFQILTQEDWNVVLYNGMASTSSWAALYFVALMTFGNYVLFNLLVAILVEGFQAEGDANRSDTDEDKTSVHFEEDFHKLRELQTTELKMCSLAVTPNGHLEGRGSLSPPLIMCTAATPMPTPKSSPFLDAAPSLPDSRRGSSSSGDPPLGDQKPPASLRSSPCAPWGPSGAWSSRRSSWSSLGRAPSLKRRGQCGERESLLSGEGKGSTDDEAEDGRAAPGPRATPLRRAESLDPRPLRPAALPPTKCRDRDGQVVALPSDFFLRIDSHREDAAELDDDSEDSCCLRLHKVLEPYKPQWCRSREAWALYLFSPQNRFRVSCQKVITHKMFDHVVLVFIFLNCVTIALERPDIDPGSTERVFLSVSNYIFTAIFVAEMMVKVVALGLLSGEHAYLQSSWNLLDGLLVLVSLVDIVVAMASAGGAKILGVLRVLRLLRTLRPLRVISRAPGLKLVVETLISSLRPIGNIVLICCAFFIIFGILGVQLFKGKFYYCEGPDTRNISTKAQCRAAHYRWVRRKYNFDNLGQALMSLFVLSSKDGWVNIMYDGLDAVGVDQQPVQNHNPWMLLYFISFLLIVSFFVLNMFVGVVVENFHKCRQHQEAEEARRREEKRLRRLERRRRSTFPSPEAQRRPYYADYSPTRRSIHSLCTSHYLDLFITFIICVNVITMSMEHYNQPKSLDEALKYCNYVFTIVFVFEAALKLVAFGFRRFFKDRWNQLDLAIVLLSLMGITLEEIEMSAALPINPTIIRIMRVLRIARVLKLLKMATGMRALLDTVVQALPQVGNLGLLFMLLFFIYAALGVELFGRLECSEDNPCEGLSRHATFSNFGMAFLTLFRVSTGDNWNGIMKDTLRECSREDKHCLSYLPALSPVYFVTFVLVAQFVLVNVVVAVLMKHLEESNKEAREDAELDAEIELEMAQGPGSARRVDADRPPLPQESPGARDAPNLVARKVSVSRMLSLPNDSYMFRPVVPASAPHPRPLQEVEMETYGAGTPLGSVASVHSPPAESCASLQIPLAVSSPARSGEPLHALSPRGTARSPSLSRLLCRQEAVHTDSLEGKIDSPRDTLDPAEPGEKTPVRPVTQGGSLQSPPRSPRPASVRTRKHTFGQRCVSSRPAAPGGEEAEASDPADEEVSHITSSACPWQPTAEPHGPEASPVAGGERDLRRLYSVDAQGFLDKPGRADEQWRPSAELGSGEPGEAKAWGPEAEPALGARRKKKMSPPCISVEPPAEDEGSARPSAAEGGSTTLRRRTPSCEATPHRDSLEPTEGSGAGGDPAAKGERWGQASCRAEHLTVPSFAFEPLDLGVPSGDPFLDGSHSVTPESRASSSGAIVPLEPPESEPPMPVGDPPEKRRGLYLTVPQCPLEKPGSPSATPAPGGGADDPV
# Method: as §1, §2, §3
# L-type CaVs = assay: L-type CaV FLIPR assay in SH-SY5Y cells; type: cell-based, human; settings: 0.781–200 µM, 1 µM CVID, agonist 90 mM KCl + 5 mM CaCl2, n = 4
# Method: as §1, with “D-PBS (Gibco, Life Technologies) was used to wash the cells, and 0.25% Trypsin-EDTA (Gibco, Life Technologies) was used to detach the cells from the flask surface. They were split in a ratio of 1:5 (ideally 1000 cells/cm^2) when they reached 70–80% confluence (every 2–3 days).” left out
# (§4) SH-SY5Y cells were seeded into 384-well black wall clear bottom plates at a density of 15,000 cells per well, resulting in 90–95% confluence after 24 h. […] The fluorescence readings were recorded and converted as described previously, and an agonist containing 90 mM KCl + 5 mM CaCl2 was used in the second addition.
# human HVA N-type CaV2.2 = assay: N-type CaV2.2 FLIPR assay in SH-SY5Y cells; type: cell-based; settings: 0.781–200 µM, 10 µM nifedipine, agonist 90 mM KCl + 5 mM CaCl2, n = 4
# Method: as §1, with “D-PBS (Gibco, Life Technologies) was used to wash the cells, and 0.25% Trypsin-EDTA (Gibco, Life Technologies) was used to detach the cells from the flask surface. They were split in a ratio of 1:5 (ideally 1000 cells/cm^2) when they reached 70–80% confluence (every 2–3 days).” left out
# as §4
# [3] = tested on: Lucilia cuprina (Australian sheep blowflies); assay: Insecticidal activity against sheep blowflies (injection); type: in vivo; settings: 1, 4 and 10 μg per fly injected; 10 flies per group; paralytic effects at 0.5, 1, 2 and 24 h
# [4] = tested on: recombinant hCaV3.1 channel; assay: QPatch whole-cell patch-clamp, CaV3.1; type: cell-based; settings: human CaV3.1 in CHO cells
# Method: as §1, with “They were split in a ratio of 1:5 (ideally 1000 cells/cm^2) when they reached 70–80% confluence (every 2–3 days).” left out
# as §3
# [5] = tested on: T-type CaVs (CaV3.1 and CaV3.2); settings: ref [9],[10]; cited from earlier work
# Source text: Scorpions are venomous arachnids of the order Scorpiones, with around 2798 currently (December 2023) described species distributed on all continents except Antarctica. Scorpion venoms are complex mixtures of peptides, enzymes, mucoproteins, amino acids (aa), nucleotides, lipids, amines, heterocyclic components, inorganic salts, and probably other yet to be described substances. They are rich sources of neurotoxic polypeptides that recognize and bind to ion channels of excitable and non-excitable cells and modulate their functional properties. Based on the specific binding propertie ...
molecule,measurement,setting,value
C[C@@H](O)[C@@H]1NC(=O)[C@@H](NC(=O)[C@@H](N)Cc2c[nH]cn2)CSSC[C@@H](C(=O)N[C@@H](Cc2c[nH]c3ccccc23)C(N)=O)NC(=O)[C@H](Cc2c[nH]cn2)NC(=O)[C@H](CC(N)=O)NC(=O)[C@H](CO)NC(=O)[C@H](CC(N)=O)NC(=O)[C@@H]2CCCN2C1=O [Hf1a-NH2] (H-HCTPNSNHCW-NH2; disulfide 2-9),inhibition at 25 µM,"[1]; 25 μM, holding −90 mV, 200 ms to −10 mV, n = 4, read-out: CaV3.3 current inhibition at 25 μM",44.6%
same,IC50,"[1]; partial inhibition, QPatch, holding −90 mV, 200 ms steps to −10 mV, 5 mM CaCl2, 0.1% BSA, pH 7.4, n = 4, means ± SEM, read-out: IC50 (CaV3.3 depolarized currents)",490 nM
same,Adverse effects on locomotor performance,"24 h post-injection, intraplantar",no adverse effects on locomotor performance
same,Abnormal motor function during treadmill run,"mouse, in vivo",no abnormal motor functions like foot slips were noticed
same,Distance covered on treadmill,"mouse, in vivo",showed no difference
same,inhibition at 25 µM,"[2]; 25 μM, holding −90 mV, 200 ms to −25 mV, n = 4, read-out: CaV3.2 current inhibition at 25 μM",31.7%
same,IC50,"[2]; partial inhibition, QPatch, holding −90 mV, 200 ms steps to −25 mV, 5 mM CaCl2, 0.1% BSA, pH 7.4, n = 4, means ± SEM, read-out: IC50 (CaV3.2 depolarized currents)",1180 nM
HCTPNSNHCW (disulfide 2-9 (inferred)) [Hf1a-OH],Effect on CaV3.3 current (in words),"[1]; QPatch, human CaV3.3 in HEK 293 cells",failed to show activity in any of the three subtypes; also recorded: did not show activity against any of the three T-type subtypes
same,Effect on L-type CaVs,L-type CaVs,neither form showed activity; also recorded: neither form of ω-Buthitoxin-Hf1a affected N-type or L-type CaVs; also recorded: Neither Hf1a-NH2 nor Hf1a-OH showed activity against L- and N-type HVA CaVs
same,Effect on CaV3.2 current (in words),"[2]; QPatch, human CaV3.2 in HEK 293 cells",failed to show activity in any of the three subtypes; also recorded: did not show activity against any of the three T-type subtypes
same,Effect on N-type CaV2.2,human HVA N-type CaV2.2,neither form showed activity; also recorded: neither form of ω-Buthitoxin-Hf1a affected N-type or L-type CaVs; also recorded: Neither Hf1a-NH2 nor Hf1a-OH showed activity against L- and N-type HVA CaVs
same,Insecticidal activity against adult sheep blowflies,[3],no insecticidal activity; also recorded: neither Hf1a-OH nor Hf1a-NH2 showed observable insecticidal activity
same,Effect on CaV3.1 current (in words),[4],failed to show activity in any of the three subtypes; also recorded: did not show activity against any of the three T-type subtypes
B1,Selective binding to T-type CaVs (CaV3.1 and CaV3.2),[5],first and only scorpion toxin shown to selectively bind T-type CaVs (CaV3.1 and CaV3.2)

# — article PMC11084959 (International Journal of Molecular Sciences, 2024)
